Legend:
SGLT-2 = molecular target: T1, SGLT-2 (Homo sapiens, UniProt P31639); assay: [14C]-AMG absorption in stable SGLT2 expressing Flp-in CHO cells (SGLT-2 activity screening assay); format: cell-based; settings: 14C-AMG uptake, 37° C. 1 h, 1% DMSO
T1 sequence (P31639 1-672): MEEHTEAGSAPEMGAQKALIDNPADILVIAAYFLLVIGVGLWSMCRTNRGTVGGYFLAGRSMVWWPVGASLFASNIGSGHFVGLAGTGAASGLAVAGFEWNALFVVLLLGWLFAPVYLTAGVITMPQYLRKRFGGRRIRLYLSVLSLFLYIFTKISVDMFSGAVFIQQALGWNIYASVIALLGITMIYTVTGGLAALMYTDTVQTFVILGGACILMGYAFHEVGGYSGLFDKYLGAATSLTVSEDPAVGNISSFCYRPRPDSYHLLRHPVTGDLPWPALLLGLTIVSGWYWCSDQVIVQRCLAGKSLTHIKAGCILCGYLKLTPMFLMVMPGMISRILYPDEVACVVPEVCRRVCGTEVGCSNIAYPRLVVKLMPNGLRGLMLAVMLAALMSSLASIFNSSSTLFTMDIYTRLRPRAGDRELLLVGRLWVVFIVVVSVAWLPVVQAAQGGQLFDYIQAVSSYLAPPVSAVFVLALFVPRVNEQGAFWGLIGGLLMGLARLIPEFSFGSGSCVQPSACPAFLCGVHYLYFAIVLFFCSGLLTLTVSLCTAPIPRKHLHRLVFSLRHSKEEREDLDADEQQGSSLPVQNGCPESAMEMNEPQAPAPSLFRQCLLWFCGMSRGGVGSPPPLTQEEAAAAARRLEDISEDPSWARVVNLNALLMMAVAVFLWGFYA
Description: (§1) Example 1: [^14C]-AMG Absorption in Stable SGLT1 and SGLT2 Expressing Flp-in CHO Cells (SGLT-1 and SGLT-2 Activity Screening Assay)
(§2) SGLT-1 and SGLT-2 cDNA clones were purchased from OriGene. After sequencing verification, the expression vectors were constructed based on pcDNA5/FRT using conventional molecular biology method. The expression vector was transfected into Flp-in CHO cells using Lipofectamin 2000. The transfected cells were subject hygromycin selection. The single clones of cells were selected by serial dilutions 4-5 weeks after transfection. The expression of SGLT-1 ? SGLT-2 were confirmed by RT-PCR and functional assay and cell line with strong signal was selected for subsequent study.
(§3) Culture of stable SGLT-1 and SGLT-2 expressing Flp-in CHO cell line: the culture media contain F12 medium (Invitrogen), 500 μg/ml hygromycin (Calbiochem) and 10% FBS (Invitrogen). Upon 80% confluency, the cells in the T75 flask were washed three times with PBS (Invitrogen), and 5 mL of Trpsin-EDTA solution (Invitrogen) was then added. The flask was gently rotated so that all the cells were submerged in the digestion solution. After the cells detach, 10 mL of culture medium was added and single cell suspension was prepared by pipetting up and down. The cell concentration was adjusted to 3×10^5/mL, 100 μL/well was added onto clear bottom 96-well plate (Corning).
(§4) The cells were ready for absorption assay once they attached after overnight culture. 12 h after cell plating, the cells were washed once with 150 μL/well absorption solution KRH-NMG (120 mM NMG, 4.7 mM KCl, 1.2 mM MgCl2, 2.2 mM CaCl2, 10 mM HEPES, pH 7.4 1 mM Tris). The solution was then removed from the well. 2.5 μCi/mL ^14C labeled AMG (PerkinElmer) Buffer KRH-Na+ (120 mM NaCl, 4.7 mM KCl, 1.2 mM MgCl2, 2.2 mM CaCl2, 10 mM HEPES, pH 7.4 1 mM Tris) was added at […] after washing with Buffer KRH-Na+ and KRH-NMG. The corresponding compound I was immediately added at 5 μL/well, ensuring the concentration of Dimethyl Sulfoxide was 1% (v/v). The plate was subsequently incubated at 37° C. for 1 h, after which 150 μL of ice cold wash buffer (120 mM NaCl, 4.7 mM KCl, 1.2 mM MgCl2, 2.2 mM CaCl2, 10 mM HEPES, 0.5 mM phlorizin, pH 7.4 1 mM Tris) was immediately added to terminate the reaction. Each well was washed three times with wash buffer and finally the solution was removed. Caution was taken to avoid cell detachment during the procedure. 20 μL/well of Lysis Buffer (0.1 mM NaOH) was added, the plate was vortexed at 900 rpm for 5 min. 80 μL/well of scintillation solution Microsint40 was added, and vortexed at 900 rpm for 5 min. The radioactivity was assayed using MicroBeta Trilux (PerkinElmer). The data was analyzed and IC50 of the compounds was calculated using XL-fit software.

SGLT-1 = molecular target: T2, SGLT-1 (Homo sapiens, UniProt P13866); assay: [14C]-AMG absorption in stable SGLT1 expressing Flp-in CHO cells (SGLT-1 activity screening assay); format: cell-based; settings: 14C-AMG uptake, 37° C. 1 h, 1% DMSO
T2 sequence (P13866 1-664): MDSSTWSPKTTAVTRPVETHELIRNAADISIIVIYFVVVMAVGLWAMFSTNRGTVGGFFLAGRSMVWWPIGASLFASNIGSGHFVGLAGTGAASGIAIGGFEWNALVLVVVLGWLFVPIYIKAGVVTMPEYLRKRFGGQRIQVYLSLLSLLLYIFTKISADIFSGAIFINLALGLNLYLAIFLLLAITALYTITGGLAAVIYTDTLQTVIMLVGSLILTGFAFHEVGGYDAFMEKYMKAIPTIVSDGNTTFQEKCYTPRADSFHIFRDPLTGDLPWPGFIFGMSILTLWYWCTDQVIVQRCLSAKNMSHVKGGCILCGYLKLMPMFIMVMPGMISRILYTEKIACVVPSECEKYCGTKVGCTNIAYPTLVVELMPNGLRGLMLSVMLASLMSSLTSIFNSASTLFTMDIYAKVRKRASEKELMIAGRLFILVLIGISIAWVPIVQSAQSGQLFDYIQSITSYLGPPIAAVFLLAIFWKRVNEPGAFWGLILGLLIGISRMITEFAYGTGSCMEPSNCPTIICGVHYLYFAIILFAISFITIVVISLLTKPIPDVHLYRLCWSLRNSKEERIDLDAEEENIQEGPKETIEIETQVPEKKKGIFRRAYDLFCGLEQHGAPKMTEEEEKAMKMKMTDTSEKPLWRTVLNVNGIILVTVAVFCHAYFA
Description: as §1, §2, §3, §4

SMILES	IC50 (SGLT-2) [nM]	IC50 (SGLT-1) [nM]
Cc1ccc([C@@H]2O[C@H](CO)[C@@H](O)[C@H](O)[C@H]2O)cc1Cc1ccc(OCC2(C)Cc3ccccc3O2)cc1 (single isomer, unassigned) [Compound I-111]	> 2000	34400
COc1ccc([C@@H]2O[C@H](CO)[C@@H](O)[C@H](O)[C@H]2O)cc1Cc1ccc(OCC2Cc3ccccc3O2)cc1 (stereo partly drawn) [Compound I-29, (2S,3R,4R,5S,6R)-2-(3-(4-((2,3-dihydrobenzofuran-2-yl)methoxy)benzyl)-4-methoxyphenyl)-6-(hydroxymethyl)tetrahydro-2H-pyran-3,4,5-triol]	59	220
Cc1ccc([C@@H]2O[C@H](CO)[C@@H](O)[C@H](O)[C@H]2O)cc1Cc1ccc(OCC2(C)OCc3ccccc32)cc1 (single isomer, unassigned) [Compound I-113]	18.6	655
CC1(COc2ccc(Cc3cc([C@@H]4O[C@H](CO)[C@@H](O)[C@H](O)[C@H]4O)ccc3Cl)cc2)OCc2ccccc21 (stereo partly drawn) [Compound I-108, (2S,3R,4R,5S,6R)-2-(4-chloro-3-(4-((1-methyl-1,3-dihydroisobenzofuran-1-yl)methoxy)benzyl)phenyl)-6-(hydroxymethyl)tetrahydro-2H-pyran-3,4,5-triol]	10.2	1810
CC1(COc2ccc(Cc3cc([C@@H]4O[C@H](CO)[C@@H](O)[C@H](O)[C@H]4O)ccc3Cl)cc2)OCc2ccccc21 (single isomer, unassigned) [Compound I-115]	12.7	725
OC[C@H]1O[C@@H](c2ccc(Cl)c(Cc3ccc(OCC4Cc5ccc(F)cc5O4)cc3)c2)[C@H](O)[C@@H](O)[C@@H]1O (stereo partly drawn) [Compound I-33, (2S,3R,4R,5S,6R)-2-(4-chloro-3-(4-((6-fluoro-2,3-dihydrobenzofuran-2-yl)methoxy)benzyl)phenyl)-6-(hydroxymethyl)tetrahydro-2H-pyran-3,4,5-triol]	6.2	599
Cc1ccc([C@@H]2O[C@H](CO)[C@@H](O)[C@H](O)[C@H]2O)cc1Cc1ccc(OCC2(C)OCc3ccccc32)cc1 (stereo partly drawn) [Compound I-112, (2S,3R,4R,5S,6R)-2-(3-(4-((1-methyl-1,3-dihydroisobenzofuran-1-yl)methoxy)benzyl)-4-methylphenyl)-6-(hydroxymethyl)tetrahydro-2H-pyran-3,4,5-triol]	8	179
N#Cc1ccc([C@@H]2O[C@H](CO)[C@@H](O)[C@H](O)[C@H]2O)cc1Cc1ccc(OCC2Cc3ccccc3O2)cc1 (stereo partly drawn) [Compound I-28, 2-(4-((2,3-dihydrobenzofuran-2-yl)methoxy)benzyl)-4-((2S,3R,4R,5S,6R)-3,4,5-trihydroxy-6-(hydroxymethyl)tetrahydro-2H-pyran-2-yl)benzonitrile]	> 2000	41400
CC1(COc2ccc(Cc3cc([C@@H]4O[C@H](CO)[C@@H](O)[C@H](O)[C@H]4O)ccc3Cl)cc2)Cc2ccccc2O1 (single isomer, unassigned) [Compound I-107]	> 2000	31400
OC[C@H]1O[C@@H](c2ccc(Cl)c(Cc3ccc(OCc4cc5cccc(F)c5o4)cc3)c2)[C@H](O)[C@@H](O)[C@@H]1O [Compound I-10, (2S,3R,4R,5S,6R)-2-(4-chloro-3-(4-((7-fluorobenzofuran-2-yl)methoxy)benzyl)phenyl)-6-(hydroxymethyl)tetrahydro-2H-pyran-3,4,5-triol]	12	444
OC[C@H]1O[C@@H](c2ccc(Cl)c(Cc3ccc(OCc4cc5cc(F)ccc5o4)cc3)c2)[C@H](O)[C@@H](O)[C@@H]1O [Compound I-8, (2S,3R,4R,5S,6R)-2-(4-chloro-3-(4-((5-fluorobenzofuran-2-yl)methoxy)benzyl)phenyl)-6-(hydroxymethyl)tetrahydro-2H-pyran-3,4,5-triol]	25	1440

The next compounds have a lower IC50 (SGLT-2) than those just listed; values first:

IC50 (SGLT-2) [nM]	IC50 (SGLT-1) [nM]	SMILES
5.2	997	Cc1ccc([C@@H]2O[C@H](CO)[C@@H](O)[C@H](O)[C@H]2O)cc1Cc1ccc(OCC2(C)OCc3ccccc32)cc1 (single isomer, unassigned) [Compound I-114]
4.6	287	Cc1ccc([C@@H]2O[C@H](CO)[C@@H](O)[C@H](O)[C@H]2O)cc1Cc1ccc(-c2ccc(F)cc2)s1 [B, Canagliflozin, reference compound]
4.3	396	Cc1ccc([C@@H]2O[C@H](CO)[C@@H](O)[C@H](O)[C@H]2O)cc1Cc1ccc(OCC2Cc3ccccc3O2)cc1 (single isomer, unassigned) [Compound I-27]
3.9	1310	CC1(COc2ccc(Cc3cc([C@@H]4O[C@H](CO)[C@@H](O)[C@H](O)[C@H]4O)ccc3Cl)cc2)OCc2ccccc21 (single isomer, unassigned) [Compound I-116]
2.7	95	Cc1ccc([C@@H]2O[C@H](CO)[C@@H](O)[C@H](O)[C@H]2O)cc1Cc1ccc(OC[C@@H]2Cc3ccccc3O2)cc1 [Compound I-26, (2S,3R,4R,5S,6R)-2-(3-(4-(((S)-2,3-dihydrobenzofuran-2-yl)methoxy)benzyl)-4-methylphenyl)-6-(hydroxymethyl)tetrahydro-2H-pyran-3,4,5-triol]
1.7	322	Cc1ccc([C@@H]2O[C@H](CO)[C@@H](O)[C@H](O)[C@H]2O)cc1Cc1ccc(OCC2OCc3ccccc32)cc1 (stereo partly drawn) [Compound I-43, (2S,3R,4R,5S,6R)-2-(3-(4-((1,3-dihydroisobenzofuran-1-yl)methoxy)benzyl)-4-methylphenyl)-6-(hydroxymethyl)tetrahydro-2H-pyran-3,4,5-triol]
1	608	OC[C@H]1O[C@@H](c2ccc(Cl)c(Cc3ccc(OC[C@@H]4OCc5ccccc54)cc3)c2)[C@H](O)[C@@H](O)[C@@H]1O [Compound I-38, (2S,3R,4R,5S,6R)-2-(4-chloro-3-(4-(((R)-1,3-dihydroisobenzofuran-1-yl)methoxy)benzyl)phenyl)-6-(hydroxymethyl)tetrahydro-2H-pyran-3,4,5-triol]

From US9914724B2, “C-aryl glycosid derivatives, pharmaceutical composition, preparation process and uses thereof” (SHANGHAI DE NOVO PHARMATECH CO. LTD., priority 2014, dated 2018)
